Data from US8809350B2, “Purine and pyrimidine CDK inhibitors and their use for the treatment of autoimmune diseases” (priority 2004, dated 2014).
Like-named read-outs stand apart in the source and are kept apart here.

Key:
[1] = Food intake of NZB/W F1 lupus mice; format: in vivo; conditions: Example 1; for Food Intake: mean ± SE
[2] = Water intake of NZB/W F1 lupus mice; format: in vivo; set-up: Water intake: unit not given beside the values; conditions: Example 1; for Water intake: mean ± SE
[3] = Body weight of NZB/W F1 lupus mice; conditions: Example 1; for Body Weight: mean ± SE
[4] = tested on: anti-dsDNA autoantibodies; assay: Serum anti-DNA antibodies in NZB/W F1 lupus mice; conditions: Example 1; for Serum anti-DNA antibodies: mean ± SE
[5] = Serum transaminase (AST, ALT) in NZB/W F1 lupus mice; conditions: Example 1; for Serum Transaminase ALT / Serum Transaminase AST: mean ± SE
AurA = biological target: T1, AurA (Homo sapiens, UniProt O14965); assay: In-house kinase assay (32P incorporation); format: biochemical; conditions: in-house kinase assays
T1 sequence (O14965 1-403): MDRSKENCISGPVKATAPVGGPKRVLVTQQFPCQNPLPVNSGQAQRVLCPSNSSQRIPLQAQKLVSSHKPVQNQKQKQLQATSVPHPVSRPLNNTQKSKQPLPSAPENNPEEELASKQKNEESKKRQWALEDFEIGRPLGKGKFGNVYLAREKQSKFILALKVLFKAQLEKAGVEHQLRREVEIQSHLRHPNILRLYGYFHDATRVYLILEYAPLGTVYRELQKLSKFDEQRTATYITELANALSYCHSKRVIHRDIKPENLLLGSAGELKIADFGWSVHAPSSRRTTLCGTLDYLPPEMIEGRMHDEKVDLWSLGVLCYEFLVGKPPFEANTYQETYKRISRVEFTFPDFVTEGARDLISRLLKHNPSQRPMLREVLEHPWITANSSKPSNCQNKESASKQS
Method: (§1) Kinase activity was investigated by measuring the incorporation of radioactive phosphate from ATP into appropriate polypeptide substrates. Recombinant protein kinases and kinase complexes were produced or obtained commercially. Assays were performed using 96-well plates and appropriate assay buffers (typically 25 mM β-glycerophosphate, 20 mM MOPS, 5 mM EGTA, 1 mM DTT, 1 mM […], pH 7.4), into which were added 2-4 μg of active enzyme with appropriate substrates. The reactions were initiated by addition of Mg/ATP mix (15 mM MgCl2+100 μM ATP with 30-50 kBq per well of [γ-^32P]-ATP) and mixtures incubated as required at 30° C. Reactions were stopped on ice, followed by filtration through p81 filterplates or GF/C filterplates (Whatman Polyfiltronics, Kent, UK). After washing 3 times with 75 mM aq orthophosphoric acid, plates were dried, scintillant added and incorporated radioactivity measured in a scintillation counter (TopCount, Packard Instruments, Pangbourne, Berks, UK). Compounds for kinase assay were made up as 10 mM stocks in DMSO and diluted into 10% DMSO in assay buffer.

AurB = AurB (Homo sapiens, UniProt Q96GD4); assay: In-house kinase assay (32P incorporation); format: biochemical; conditions: in-house kinase assays
Method: as §1

CDK1B = CDK1B (Homo sapiens, UniProt P06493); assay: In-house kinase assay (32P incorporation); format: biochemical; conditions: in-house kinase assays
Method: as §1

CDK2A = CDK2A (Homo sapiens, UniProt P24941); assay: In-house kinase assay (32P incorporation); format: biochemical; conditions: in-house kinase assays
Method: as §1

CDK2E = CDK2E (Homo sapiens, UniProt P24941); assay: In-house kinase assay (32P incorporation); format: biochemical; conditions: in-house kinase assays
Method: as §1

CDK4D1 = CDK4D1 (Homo sapiens, UniProt P11802); assay: In-house kinase assay (32P incorporation); format: biochemical; conditions: in-house kinase assays
Method: as §1

CDK6D3 = CDK6D3 (Homo sapiens, UniProt Q00534); assay: In-house kinase assay (32P incorporation); format: biochemical; conditions: in-house kinase assays
Method: as §1

CDK7/cyclin H = CDK7/cyclin H (Homo sapiens, UniProt P50613); assay: CDK 7 and 9 assay (CTD peptide substrate); format: biochemical; conditions: in-house kinase assays; read-out: Average IC50 CDK7H
Method: as §1
(§2) The reaction was stopped by placing the plate on ice for 2 min. Avidin (50 μg) was added to each well, and the plate was incubated at room temp for 30 min. The samples were transferred to a 96-well P81 filter plate, and washed (4×200 μL per well) with 75 mM phosphoric acid. Microscint 40 scintillation liquid (50 μL) was added to each well, and the amount of ^32P incorporation for each sample was measured using a Packard Topcount microplate scintillation counter.

CDK9/cyclin T1 = CDK9/cyclin T1 (Homo sapiens, UniProt P50750); assay: CDK 7 and 9 assay (CTD peptide substrate); format: biochemical; conditions: in-house kinase assays; read-out: Average IC50 CDK9T1
Method: as §1, §2

tumour cell panels = assay: In-house 72 hour cytotoxicity assays on tumour cell panels; format: cell-based
[6] = 100 mg/kg daily by gavage from 2 months (preventive), age 2 months
[7] = 100 mg/kg daily by gavage from 2 months (preventive), age 2.5 months
[8] = 100 mg/kg daily by gavage from 2 months (preventive), age 3 months
[9] = 100 mg/kg daily by gavage from 2 months (preventive), age 3.5 months
[10] = 100 mg/kg daily by gavage from 2 months (preventive), age 4 months
[11] = 100 mg/kg daily by gavage from 2 months (preventive), age 4.5 months
[12] = 100 mg/kg daily by gavage from 2 months (preventive), age 5 months
[13] = 200 mg/kg daily by gavage from 2 months (preventive), age 2 months
[14] = 200 mg/kg daily by gavage from 2 months (preventive), age 2.5 months
[15] = 200 mg/kg daily by gavage from 2 months (preventive), age 3 months
[16] = 200 mg/kg daily by gavage from 2 months (preventive), age 3.5 months
[17] = 200 mg/kg daily by gavage from 2 months (preventive), age 5 months
[18] = every two weeks from 2 to 5 months
[19] = 100 mg/kg therapeutic (from 5 months)
[20] = rounded IC50 value used for ease of calculation in PBMC assays, read-out: IC50 Used

Chain of CDK7/cyclin H (P50613 whole entry): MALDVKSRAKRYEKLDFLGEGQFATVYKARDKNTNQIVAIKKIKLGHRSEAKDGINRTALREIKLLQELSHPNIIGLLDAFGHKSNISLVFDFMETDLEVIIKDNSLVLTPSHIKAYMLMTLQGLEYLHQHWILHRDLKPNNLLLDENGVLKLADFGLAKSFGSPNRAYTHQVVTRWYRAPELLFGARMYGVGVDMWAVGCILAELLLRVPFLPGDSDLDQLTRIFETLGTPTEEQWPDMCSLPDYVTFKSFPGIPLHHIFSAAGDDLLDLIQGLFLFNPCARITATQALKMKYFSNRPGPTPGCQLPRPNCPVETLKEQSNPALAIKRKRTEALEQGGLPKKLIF
Chain of CDK7/cyclin H (P51946 whole entry partner): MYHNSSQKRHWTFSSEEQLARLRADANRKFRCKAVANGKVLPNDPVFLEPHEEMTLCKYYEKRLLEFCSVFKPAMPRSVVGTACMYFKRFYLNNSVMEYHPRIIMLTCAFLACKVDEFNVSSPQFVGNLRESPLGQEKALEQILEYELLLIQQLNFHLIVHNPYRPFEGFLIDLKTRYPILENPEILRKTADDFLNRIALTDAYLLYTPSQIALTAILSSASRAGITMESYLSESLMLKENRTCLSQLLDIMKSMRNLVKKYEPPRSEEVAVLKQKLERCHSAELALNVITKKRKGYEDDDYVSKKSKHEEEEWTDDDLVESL
Chain of CDK1B (P06493 whole entry): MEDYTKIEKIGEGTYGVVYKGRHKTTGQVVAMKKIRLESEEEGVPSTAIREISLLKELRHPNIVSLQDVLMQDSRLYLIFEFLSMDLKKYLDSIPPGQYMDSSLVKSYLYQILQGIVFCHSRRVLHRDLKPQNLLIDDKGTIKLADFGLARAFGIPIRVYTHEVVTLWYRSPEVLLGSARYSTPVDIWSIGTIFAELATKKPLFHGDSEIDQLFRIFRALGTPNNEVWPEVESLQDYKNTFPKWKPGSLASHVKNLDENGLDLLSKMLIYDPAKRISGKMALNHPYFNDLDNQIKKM
Chain of CDK1B (P14635 whole entry partner): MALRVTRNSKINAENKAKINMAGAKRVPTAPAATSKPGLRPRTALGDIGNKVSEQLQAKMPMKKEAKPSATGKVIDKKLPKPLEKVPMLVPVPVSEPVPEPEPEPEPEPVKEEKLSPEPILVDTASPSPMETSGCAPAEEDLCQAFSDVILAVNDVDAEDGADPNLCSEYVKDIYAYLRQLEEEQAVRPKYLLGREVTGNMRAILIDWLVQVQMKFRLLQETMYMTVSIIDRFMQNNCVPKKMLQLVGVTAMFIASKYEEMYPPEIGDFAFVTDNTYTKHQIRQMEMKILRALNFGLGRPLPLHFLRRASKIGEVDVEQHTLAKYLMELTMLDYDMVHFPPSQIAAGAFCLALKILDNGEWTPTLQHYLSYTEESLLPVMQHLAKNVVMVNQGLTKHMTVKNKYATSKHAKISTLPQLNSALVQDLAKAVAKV
Chain of AurB (Q96GD4 whole entry): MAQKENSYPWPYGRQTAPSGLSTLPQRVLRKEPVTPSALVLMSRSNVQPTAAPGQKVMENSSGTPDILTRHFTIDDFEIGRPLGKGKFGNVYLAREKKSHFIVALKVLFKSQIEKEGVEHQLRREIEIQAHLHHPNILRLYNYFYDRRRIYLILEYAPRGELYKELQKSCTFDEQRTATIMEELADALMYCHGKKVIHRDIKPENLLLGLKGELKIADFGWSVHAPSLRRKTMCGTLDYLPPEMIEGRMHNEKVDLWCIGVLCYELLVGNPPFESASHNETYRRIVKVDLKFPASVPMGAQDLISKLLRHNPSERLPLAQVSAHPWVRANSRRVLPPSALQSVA
Chain of CDK6D3 (Q00534 whole entry): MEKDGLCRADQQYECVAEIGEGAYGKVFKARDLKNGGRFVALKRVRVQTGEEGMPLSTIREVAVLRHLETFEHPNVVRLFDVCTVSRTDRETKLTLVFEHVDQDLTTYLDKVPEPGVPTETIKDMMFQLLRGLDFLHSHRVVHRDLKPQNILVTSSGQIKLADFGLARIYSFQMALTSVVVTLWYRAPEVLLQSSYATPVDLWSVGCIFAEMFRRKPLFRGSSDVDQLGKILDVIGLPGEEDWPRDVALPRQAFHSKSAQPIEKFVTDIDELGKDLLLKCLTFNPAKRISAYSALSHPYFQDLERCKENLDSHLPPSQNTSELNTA
Chain of CDK6D3 (P30281 whole entry partner): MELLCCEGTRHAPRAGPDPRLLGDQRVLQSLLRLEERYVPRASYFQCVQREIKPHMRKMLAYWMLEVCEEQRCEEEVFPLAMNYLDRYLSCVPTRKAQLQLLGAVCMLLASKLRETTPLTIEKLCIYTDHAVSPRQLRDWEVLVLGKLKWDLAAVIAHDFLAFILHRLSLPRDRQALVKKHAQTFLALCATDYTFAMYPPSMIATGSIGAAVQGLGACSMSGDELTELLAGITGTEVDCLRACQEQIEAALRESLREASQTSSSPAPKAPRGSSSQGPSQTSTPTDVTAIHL
Chain of CDK4D1 (P11802 whole entry): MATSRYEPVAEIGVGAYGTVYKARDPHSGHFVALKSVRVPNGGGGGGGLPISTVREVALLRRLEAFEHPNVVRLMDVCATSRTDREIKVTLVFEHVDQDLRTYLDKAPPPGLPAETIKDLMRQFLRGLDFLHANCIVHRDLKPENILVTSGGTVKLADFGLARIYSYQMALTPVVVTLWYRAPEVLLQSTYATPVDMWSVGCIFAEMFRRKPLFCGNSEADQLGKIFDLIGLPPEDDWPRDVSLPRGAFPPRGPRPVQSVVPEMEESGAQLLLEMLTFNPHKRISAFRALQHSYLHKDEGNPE
Chain of CDK4D1 (P24385 whole entry partner): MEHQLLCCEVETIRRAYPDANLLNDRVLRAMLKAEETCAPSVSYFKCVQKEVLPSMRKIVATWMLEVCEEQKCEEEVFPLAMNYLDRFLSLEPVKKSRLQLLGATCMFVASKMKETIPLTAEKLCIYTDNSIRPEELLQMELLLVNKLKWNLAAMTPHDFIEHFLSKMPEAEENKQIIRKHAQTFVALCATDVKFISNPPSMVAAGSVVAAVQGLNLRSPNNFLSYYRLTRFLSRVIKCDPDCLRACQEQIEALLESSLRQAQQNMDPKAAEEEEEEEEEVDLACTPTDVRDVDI
Chain of CDK9/cyclin T1 (P50750 whole entry): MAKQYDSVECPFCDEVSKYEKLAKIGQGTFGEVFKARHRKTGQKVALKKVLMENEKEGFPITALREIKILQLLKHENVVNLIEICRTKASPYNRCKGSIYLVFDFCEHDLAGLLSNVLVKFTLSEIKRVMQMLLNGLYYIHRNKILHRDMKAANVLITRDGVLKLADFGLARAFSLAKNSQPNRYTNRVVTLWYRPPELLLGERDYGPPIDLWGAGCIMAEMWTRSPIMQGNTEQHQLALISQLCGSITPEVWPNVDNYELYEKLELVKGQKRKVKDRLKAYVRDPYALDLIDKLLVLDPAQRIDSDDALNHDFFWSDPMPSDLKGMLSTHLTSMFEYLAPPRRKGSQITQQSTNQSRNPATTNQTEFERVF
Chain of CDK9/cyclin T1 (O60563 whole entry partner): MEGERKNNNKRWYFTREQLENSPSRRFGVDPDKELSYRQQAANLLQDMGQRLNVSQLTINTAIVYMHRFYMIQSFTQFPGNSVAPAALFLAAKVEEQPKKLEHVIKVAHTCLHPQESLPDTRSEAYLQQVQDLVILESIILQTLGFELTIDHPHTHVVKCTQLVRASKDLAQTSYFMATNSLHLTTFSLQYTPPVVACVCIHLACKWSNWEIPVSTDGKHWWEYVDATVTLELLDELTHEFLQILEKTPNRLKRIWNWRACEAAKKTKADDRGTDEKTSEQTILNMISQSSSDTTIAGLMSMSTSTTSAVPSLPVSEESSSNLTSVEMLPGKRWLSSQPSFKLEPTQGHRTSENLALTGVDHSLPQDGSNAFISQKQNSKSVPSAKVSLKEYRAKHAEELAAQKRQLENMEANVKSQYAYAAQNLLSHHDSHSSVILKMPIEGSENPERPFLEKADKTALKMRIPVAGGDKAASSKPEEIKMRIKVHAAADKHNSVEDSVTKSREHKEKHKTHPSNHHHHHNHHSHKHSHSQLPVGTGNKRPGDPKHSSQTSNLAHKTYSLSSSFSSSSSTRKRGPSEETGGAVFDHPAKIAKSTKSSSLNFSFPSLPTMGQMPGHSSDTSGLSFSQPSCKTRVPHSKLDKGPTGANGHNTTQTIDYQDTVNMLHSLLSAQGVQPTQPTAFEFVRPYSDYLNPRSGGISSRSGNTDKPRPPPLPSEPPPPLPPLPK

SMILES: CC[C@H](CO)Nc1nc(NCc2ccccc2)c2ncn(C(C)C)c2n1 [CYC202, 2-(1-R-hydroxymethylpropylamino)-6-benzylamino-9-isopropylpurine]
- Food Intake [1, 6]: 3.69 ± 0.33
- Food Intake [1, 7]: 3.77 ± 0.23
- Food Intake [1, 8]: 3.92 ± 0.18
- Food Intake [1, 9]: 4.08 ± 0.18
- Food Intake [1, 10]: 3.92 ± 0.26
- Food Intake [1, 11]: 3.85 ± 0.30
- Food Intake [1, 12]: 3.85 ± 0.22
- Food Intake [1, 13]: 3.54 ± 0.29
- Food Intake [1, 14]: 4.08 ± 0.08
- Food Intake [1, 15]: 4.00 ± 0.11
- Food Intake [1, 16]: 4.08 ± 0.21
- Food Intake ([1]; 200 mg/kg daily by gavage from 2 months (preventive), age 4 months): 4.00 ± 0.16
- Food Intake ([1]; 200 mg/kg daily by gavage from 2 months (preventive), age 4.5 months): 4.00 ± 0.18
- Food Intake [1, 17]: 3.92 ± 0.29
- Food intake versus vehicle [1, 18]: comparable
- Water intake [2, 6]: 6.64 ± 0.29
- Water intake [2, 7]: 5.14 ± 0.40
- Water intake [2, 8]: 4.21 ± 0.28
- Water intake [2, 9]: 5.00 ± 0.28
- Water intake [2, 10]: 5.57 ± 0.20
- Water intake [2, 11]: 4.43 ± 0.20
- Water intake [2, 12]: 3.93 ± 0.22
- Water intake [2, 13]: 5.31 ± 0.26
- Water intake [2, 14]: 4.77 ± 0.20
- Water intake [2, 15]: 4.92 ± 0.18
- Water intake [2, 16]: 5.08 ± 0.21
- Water intake [2, 17]: 4.23 ± 0.28
- Water intake versus vehicle [2, 18]: comparable
- Body Weight [3, 6]: 27.93 ± 0.62
- Body Weight [3, 8]: 27.86 ± 0.52
- Body Weight [3, 10]: 28.07 ± 0.57
- Body Weight [3, 12]: 28.64 ± 0.57
- Body Weight ([3]; 100 mg/kg daily by gavage from 2 months (preventive), age 6 months): 30.23 ± 0.67
- Body Weight ([3]; 100 mg/kg daily by gavage from 2 months (preventive), age 7 months): 31.50 ± 0.87
- Body Weight ([3]; 100 mg/kg daily by gavage from 2 months (preventive), age 8 months): 30.78 ± 0.91
- Body Weight ([3]; 100 mg/kg daily by gavage from 5 months (therapeutic), age 2 months): 26.71 ± 0.74
- Body Weight ([3]; 100 mg/kg daily by gavage from 5 months (therapeutic), age 3 months): 28.14 ± 0.69
- Body Weight ([3]; 100 mg/kg daily by gavage from 5 months (therapeutic), age 4 months): 29.43 ± 1.01
- Body Weight ([3]; 100 mg/kg daily by gavage from 5 months (therapeutic), age 5 months): 29.71 ± 0.82
- Body Weight ([3]; 100 mg/kg daily by gavage from 5 months (therapeutic), age 6 months): 31.45 ± 0.96
- Body Weight ([3]; 100 mg/kg daily by gavage from 5 months (therapeutic), age 7 months): 30.80 ± 1.69
- Body Weight ([3]; 100 mg/kg daily by gavage from 5 months (therapeutic), age 8 months): 29.80 ± 1.46
- Body Weight [3, 13]: 27.85 ± 0.72
- Body Weight [3, 15]: 28.00 ± 0.68
- Body Weight [3, 17]: 28.92 ± 0.35
- Body Weight ([3]; 200 mg/kg daily by gavage from 2 months (preventive), age 6 months): 31.58 ± 0.43
- Body Weight ([3]; 200 mg/kg daily by gavage from 2 months (preventive), age 7 months): 30.82 ± 0.35
- Body Weight ([3]; 200 mg/kg daily by gavage from 2 months (preventive), age 8 months): 31.60 ± 0.52
- Body weight versus other experimental groups ([3]; all CYC202 groups): No difference
- Serum anti-DNA antibodies ([4]; 100 mg/kg preventive, 5 months): 4.04 ± 0.76 U/ml
- Serum anti-DNA antibodies ([4]; 100 mg/kg preventive, 8 months): 76.55 ± 21.40 U/ml
- Serum anti-DNA antibodies ([4]; 200 mg/kg preventive, 5 months): 24.20 ± 6.52 U/ml
- Serum anti-DNA antibodies ([4]; 200 mg/kg preventive, 8 months): 73.39 ± 21.13 U/ml
- Anti-DNA antibody levels versus vehicle ([4]; treated from 2 months, both doses, at 5 or 8 months of age): significantly lower than vehicle
- Serum Transaminase ALT [5, 19]: 36.00 ± 2.45 IU/L
- Serum Transaminase AST [5, 19]: 74.40 ± 1.72 IU/L
- Serum transaminase levels (ALT and AST) ([5]; 200 mg/kg from 2 months or 100 mg/kg from 5 months, similar to control mice): not modified by treatments
- Serum Transaminase ALT ([5]; 200 mg/kg preventive): 36.44 ± 4.04 IU/L
- Serum Transaminase AST ([5]; 200 mg/kg preventive): 62.89 ± 4.70 IU/L

SMILES: CC[C@@H](Nc1nc(NCc2cccnc2)c2ncn(C(C)C)c2n1)C(C)(C)O [Compound 5]
- IC50 (AurA): 0.051 µM
- IC50 (AurB): 0.023 µM
- IC50 (CDK1B): 15.9 µM
- IC50 (CDK2A): 1.24 µM
- IC50 (CDK2E): 0.931 µM
- IC50 (CDK4D1): 2.75 µM
- IC50 (CDK6D3): 1.94 µM
- IC50 (CDK7/cyclin H): 27 µM
- IC50 (CDK9/cyclin T1): 2.71 µM
- IC50 (tumour cell panels; 72 h, read-out: IC50 Average): 1.43 µM
- IC50 (tumour cell panels; [20]): 1.5 µM

SMILES: CC[C@H](Nc1nc(NCc2cccnc2)c2ncn(C(C)C)c2n1)C(C)(C)O [Compound 6]
- IC50 (AurA): > 10 µM
- IC50 (AurB): > 10 µM
- IC50 (CDK1B): 7.6 µM
- IC50 (CDK2E): 0.126 µM
- IC50 (CDK4D1): 19.3 µM
- IC50 (CDK6D3): 9.19 µM
- IC50 (CDK7/cyclin H): 1.33 µM
- IC50 (CDK9/cyclin T1): 0.338 µM
- IC50 (tumour cell panels; 72 h, read-out: IC50 Average): 10.4 µM
- IC50 (tumour cell panels; [20]): 10 µM
